Assay results as given in the supplement of paper PMC8671470.

Columns and labels:
Details in all cases: 72 h
SHI-1 [1] = experiment: cell viability (% survival relative to DMSO control, bortezomib = 0%); higher = less cytotoxic
Procedure, shortened: (§1)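 Reported values are percent survival from duplicate wells, averaged. Fifteen myeloid leukaemia cell lines were treated in 384-well plates with compounds at 1, 10, 100, 1000 or 10000 nM for 72 h at 37 °C in 5% CO2. Signals from CellTiter-Glo luminescence were scaled with vehicle as 100% and a 10 µM positive control as 0%.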

HEL [2] = experiment: as above
Procedure, shortened: as §1

KU-812 [3] = experiment: as above
Procedure, shortened: as §1

KG-1 [4] = experiment: as above
Procedure, shortened: as §1

NOMO-1 [5] = experiment: as above
Procedure, shortened: as §1

KCL-22 [6] = experiment: as above
Procedure, shortened: as §1

LAMA-84 [7] = experiment: as above
Procedure, shortened: as §1

MV4-11 [8] = experiment: as above
Procedure, shortened: as §1

THP-1 [9] = experiment: as above
Procedure, shortened: as §1

BV-173 [10] = experiment: as above
Procedure, shortened: as §1

ML-2 [11] = experiment: as above
Procedure, shortened: as §1

Mono-Mac-6 [12] = experiment: as above
Procedure, shortened: as §1

MOLM-13 [13] = experiment: as above
Procedure, shortened: as §1

HL-60 [14] = experiment: as above
Procedure, shortened: as §1

SHI-1 [15] = test system: SHI-1
Procedure, shortened: (§2)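 Fifteen myeloid leukaemia lines in RPMI 1640 were treated for 72 h at 37 °C and 5% CO2 with five tenfold doses from 1 to 10,000 nM, in duplicate. ATP luminescence was normalised to vehicle and to a positive control at 10 µM, then fitted with a four-parameter log-logistic model. The IC50 came from these fits.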

HEL [16] = test system: HEL
Procedure, shortened: as §2

K-562 = test system: K-562
Procedure, shortened: as §2

KU-812 [17] = test system: KU-812
Procedure, shortened: as §2

KG-1 [18] = test system: KG-1
Procedure, shortened: as §2

NOMO-1 [19] = test system: NOMO-1
Procedure, shortened: as §2

KCL-22 [20] = test system: KCL-22
Procedure, shortened: as §2

LAMA-84 [21] = test system: LAMA-84
Procedure, shortened: as §2

MV4-11 [22] = test system: MV4-11
Procedure, shortened: as §2

THP-1 [23] = test system: THP-1
Procedure, shortened: as §2

BV-173 [24] = test system: BV-173
Procedure, shortened: as §2

ML-2 [25] = test system: ML-2
Procedure, shortened: as §2

Mono-Mac-6 [26] = test system: Mono-Mac-6
Procedure, shortened: as §2

MOLM-13 [27] = test system: MOLM-13
Procedure, shortened: as §2

HL-60 [28] = test system: HL-60
Procedure, shortened: as §2

HL-60 [29] = experiment: area under dose-response curve (viability, 1 nM-10 uM) (fraction (0-1)); higher = more sensitive
Procedure, shortened: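 For each screen, HL-60 cells in RPMI 1640 with 10% FBS carried either DMSO or 100 nM of one of three metabolic inhibitors while the full library was applied at five tenfold concentrations, 1–10,000 nM, in duplicate. Plates were 384-well and were kept 72 h at 37 °C, 5% CO2. Viability, measured by CellTiter-Glo, was normalised to wells with DMSO and with 10 μM proteasome inhibitor. Where area under the curve appears, it was fitted by four-parameter log-logistic models in drc and PharmacoGx.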

O=C(O)Cn1nnc(-c2cc(N3CCC(Oc4cc(F)ccc4Br)CC3)no2)n1 [MK-8245]
Details | area under dose-response curve, co-treatment: AZD3965 100 nM | area under dose-response curve, co-treatment: DMSO vehicle | area under dose-response curve, co-treatment: GSK2194069 100 nM | area under dose-response curve, co-treatment: pictilisib 100 nM | cell viability, 1 nM [%] | cell viability, 10 nM [%] | cell viability, 100 nM [%] | cell viability, 1000 nM [%] | cell viability, 10000 nM [%]
BV-173 [10] | – | – | – | – | 88.1 | 105 | 91.2 | 88.6 | 87.3
HEL [2] | – | – | – | – | 108 | 115 | 75.6 | 92.7 | 91.2
HL-60 [14] | – | – | – | – | 105 | 93.2 | 108 | 50.7 | 94.3
HL-60 [29] | < 0.0301 | < 0.0301 | < 0.0301 | < 0.0301 | – | – | – | – | –
KCL-22 [6] | – | – | – | – | 105 | 118 | 95.5 | 97.7 | 60.1
KG-1 [4] | – | – | – | – | 105 | 117 | 108 | 102 | 112
KU-812 [3] | – | – | – | – | 99 | 107 | 93.4 | 88.2 | 94.7
LAMA-84 [7] | – | – | – | – | 99.6 | 109 | 95.1 | 95.5 | 91.6
ML-2 [11] | – | – | – | – | 109 | 111 | 102 | 105 | 96.7
MOLM-13 [13] | – | – | – | – | 104 | 131 | 86.1 | 48.2 | 35.8
MV4-11 [8] | – | – | – | – | 96.8 | 91.6 | 92.4 | 116 | 94.2
Mono-Mac-6 [12] | – | – | – | – | 91.1 | 90.8 | 94.2 | 94.6 | 88
NOMO-1 [5] | – | – | – | – | 95.8 | 103 | 96.9 | 96.9 | 90
SHI-1 [1] | – | – | – | – | 99 | 119 | 103 | 97.8 | 90.8
THP-1 [9] | – | – | – | – | 95.3 | 96.1 | 102 | 99 | 89.2

Details | IC50 (cell viability) [µM]
BV-173 [24] | > 10
HEL [16] | > 10
HL-60 [28] | > 10
K-562 | 6.81
KCL-22 [20] | > 10
KG-1 [18] | > 10
KU-812 [17] | > 10
LAMA-84 [21] | > 10
ML-2 [25] | > 10
MOLM-13 [27] | 0.643
MV4-11 [22] | > 10
Mono-Mac-6 [26] | > 10
NOMO-1 [19] | > 10
SHI-1 [15] | > 10
THP-1 [23] | > 10

Cc1cn([C@H]2C[C@H](O)[C@@H](COP(=O)(O)OP(=O)(O)O)O2)c(=O)[nH]c1=O [Thymidine diphosphate]
Details | area under dose-response curve, co-treatment: AZD3965 100 nM | area under dose-response curve, co-treatment: DMSO vehicle | area under dose-response curve, co-treatment: GSK2194069 100 nM | area under dose-response curve, co-treatment: pictilisib 100 nM | cell viability, 1 nM [%] | cell viability, 10 nM [%] | cell viability, 100 nM [%] | cell viability, 1000 nM [%] | cell viability, 10000 nM [%]
BV-173 [10] | – | – | – | – | 92.3 | 83.5 | 98.2 | 78 | 39
HEL [2] | – | – | – | – | 99.1 | 89.4 | 93.2 | 106 | 103
HL-60 [14] | – | – | – | – | 88.6 | 85.2 | 87.7 | 109 | 104
HL-60 [29] | < 0.0301 | < 0.0301 | < 0.0301 | < 0.0301 | – | – | – | – | –
KCL-22 [6] | – | – | – | – | 111 | 89.8 | 98.3 | 97.7 | 85.6
KG-1 [4] | – | – | – | – | 101 | 95.2 | 97.5 | 95.6 | 104
KU-812 [3] | – | – | – | – | 88.2 | 93.6 | 109 | 96.9 | 102
LAMA-84 [7] | – | – | – | – | 97.1 | 97.9 | 106 | 94.5 | 86.7
ML-2 [11] | – | – | – | – | 95.6 | 87.9 | 95.5 | 96.4 | 106
MOLM-13 [13] | – | – | – | – | 108 | 92.1 | 110 | 105 | 103
MV4-11 [8] | – | – | – | – | 95.7 | 87.8 | 98.6 | 102 | 96.4
Mono-Mac-6 [12] | – | – | – | – | 95.1 | 88.1 | 105 | 91.8 | 92.5
NOMO-1 [5] | – | – | – | – | 98.1 | 99.8 | 100 | 98.6 | 95.8
SHI-1 [1] | – | – | – | – | 96.2 | 89.3 | 110 | 91.8 | 107
THP-1 [9] | – | – | – | – | 99 | 92.5 | 95.8 | 95.7 | 99.3

Details | IC50 (cell viability) [µM]
BV-173 [24] | 4.03
HEL [16] | > 10
HL-60 [28] | > 10
K-562 | > 10
KCL-22 [20] | > 10
KG-1 [18] | > 10
KU-812 [17] | > 10
LAMA-84 [21] | > 10
ML-2 [25] | > 10
MOLM-13 [27] | > 10
MV4-11 [22] | > 10
Mono-Mac-6 [26] | > 10
NOMO-1 [19] | > 10
SHI-1 [15] | > 10
THP-1 [23] | > 10
